In PubChem BioAssay (NCI):
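GI50: concentration for 50% inhibition of growth. TGI marks complete inhibition of growth.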

Tests used:
Experiment in all cases: inhibition of tumour cell growth, NCI panel, 384-well format
[1] = test system: DU-145 prostate
[2] = test system: OVCAR-4 ovarian
[3] = test system: SW-620 colon
[4] = test system: PC-3 prostate
[5] = test system: U251 glioblastoma
[6] = test system: SN12C renal
[7] = test system: KM12 colon
[8] = test system: OVCAR-3 ovarian
[9] = test system: MDA-MB-468 breast
[10] = test system: SF-539 CNS
[11] = test system: UO-31 renal
[12] = test system: OVCAR-5 ovarian
[13] = test system: MOLT-4 leukemia
[14] = test system: HS 578T breast
[15] = test system: NCI/ADR-RES ovarian
[16] = test system: HL-60(TB) leukemia
[17] = test system: HT29 colon
[18] = test system: HOP-62 NSCLC
[19] = test system: BT-549 breast
[20] = test system: EKVX NSCLC
[21] = test system: K-562 leukemia
[22] = test system: OVCAR-8 ovarian
[23] = test system: RXF 393 renal
[24] = test system: SF-268 CNS
[25] = test system: IGROV1 ovarian
[26] = test system: MALME-3M melanoma
[27] = test system: SNB-19 CNS
[28] = test system: UACC-62 melanoma
[29] = test system: MDA-MB-435 melanoma
[30] = test system: MCF7 breast
[31] = test system: ACHN renal
[32] = test system: HOP-92 NSCLC
[33] = test system: NCI-H522 lung
[34] = test system: CAKI-1 renal
[35] = test system: SK-MEL-28 melanoma
[36] = test system: HCT-15 colon
[37] = test system: HCT-116 colon
[38] = test system: CCRF-CEM leukemia
[39] = test system: SK-MEL-2 melanoma
[40] = test system: SNB-75 CNS
[41] = test system: UACC-257 melanoma
[42] = test system: NCI-H226 lung
[43] = test system: M14 melanoma
[44] = test system: MDA-MB-231 breast
[45] = test system: RPMI-8226 leukemia
[46] = test system: 786-0 renal

Compound: CC1=C(/C=C/C(C)=C/C=C/C(C)=C/C(=O)O)C(C)(C)CCC1
- GI50 [1]: 45.7 µM
- TGI [1]: > 100 µM
- GI50 [2]: 46 µM
- TGI [2]: > 100 µM
- GI50 [3]: 47.3 µM
- TGI [3]: > 100 µM
- GI50 [4]: 19.8 µM
- TGI [4]: 39.7 µM
- GI50 [5]: > 100 µM
- TGI [5]: > 100 µM
- GI50 [6]: 25.9 µM
- TGI [6]: 89.1 µM
- GI50 [7]: 38 µM
- TGI [7]: > 100 µM
- GI50 [8]: 19.6 µM
- TGI [8]: 34.9 µM
- GI50 [9]: 25.4 µM
- TGI [9]: 48.4 µM
- GI50 [10]: 12 µM
- TGI [10]: 24.9 µM
- GI50 [11]: 86 µM
- TGI [11]: > 100 µM
- GI50 [12]: 37.2 µM
- TGI [12]: > 100 µM
- GI50 [13]: 14.6 µM
- TGI [13]: 27.9 µM
- GI50 [14]: 16.4 µM
- TGI [14]: 40 µM
- GI50 [15]: > 100 µM
- TGI [15]: > 100 µM
- GI50 [16]: 25.9 nM
- TGI [16]: 16.9 µM
- GI50 [17]: 21.6 µM
- TGI [17]: 46 µM
- GI50 [18]: > 100 µM
- TGI [18]: > 100 µM
- GI50 [19]: 20.3 µM
- TGI [19]: 36.5 µM
- GI50 [20]: > 100 µM
- TGI [20]: > 100 µM
- GI50 [21]: 21.5 µM
- TGI [21]: 41.3 µM
- GI50 [22]: 24.1 µM
- TGI [22]: 58.3 µM
- GI50 [23]: 24.3 µM
- TGI [23]: 57.5 µM
- GI50 [24]: 22.9 µM
- TGI [24]: 49.1 µM
- GI50 [25]: > 100 µM
- TGI [25]: > 100 µM
- GI50 [26]: 950 nM
- GI50 [27]: 30.1 µM
- TGI [27]: > 100 µM
- GI50 [28]: 19.2 µM
- TGI [28]: 40.2 µM
- GI50 [29]: 55.6 µM
- TGI [29]: > 100 µM
- GI50 [30]: 18 µM
- TGI [30]: > 100 µM
- GI50 [31]: 52.2 µM
- TGI [31]: > 100 µM
- GI50 [32]: 38.9 µM
- TGI [32]: > 100 µM
- GI50 [33]: 24.1 µM
- TGI [33]: 51.5 µM
- GI50 [34]: 38.6 µM
- TGI [34]: > 100 µM
- GI50 [35]: 47.1 µM
- TGI [35]: > 100 µM
- GI50 [36]: 22.7 µM
- TGI [36]: 52.6 µM
- GI50 [37]: 20.6 µM
- TGI [37]: 39 µM
- GI50 [38]: 20.1 µM
- TGI [38]: 34.5 µM
- GI50 [39]: 27.7 µM
- TGI [39]: 49.7 µM
- GI50 [40]: 31.5 µM
- TGI [40]: 79.2 µM
- GI50 [41]: 33.4 µM
- TGI [41]: > 100 µM
- GI50 [42]: 33.2 µM
- TGI [42]: > 100 µM
- GI50 [43]: 19.4 µM
- TGI [43]: 38 µM
- GI50 [44]: 25.4 µM
- TGI [44]: 72.2 µM
- GI50 [45]: 293 nM
- TGI [45]: 11.3 µM
- GI50 [46]: 29.7 µM
- TGI [46]: 75.9 µM
